The record followed here is patent US11312712B2, “Azabenzimidazoles and their use as AMPA receptor modulators” (Janssen Pharmaceutica NV, priority 2015, dated 2022).

In the test the target is GluA1o-γ8 (GRIA1o-CACNG8 fusion construct) (Homo sapiens (Human), UniProt P42261+Q8WXS5). Briefly: Calcium flux assay (FLIPR), inhibition of TARP γ8 dependent AMPA receptor activity. It is filed as cell-based. Particulars: GluA1o-γ8 (GRIA1o-CACNG8 fusion) in HEK293 cells, calcium flux after 15 μM glutamate. Put shortly: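 HEK293 cells stably expressing a 1:1 GRIA1o–CACNG8 fusion were loaded with Calcium-5/6 dye plus compound in pH 7.4 HEPES-buffered saline. FLIPR calcium flux after 15 μM glutamate was normalized to untreated and 10 μM CP465022 controls, and a four-parameter logistic fit gave pIC50.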
GluA1o-γ8 (GRIA1o-CACNG8 fusion construct), sequence (P42261 other isoform, or with tags, fused parts or gaps): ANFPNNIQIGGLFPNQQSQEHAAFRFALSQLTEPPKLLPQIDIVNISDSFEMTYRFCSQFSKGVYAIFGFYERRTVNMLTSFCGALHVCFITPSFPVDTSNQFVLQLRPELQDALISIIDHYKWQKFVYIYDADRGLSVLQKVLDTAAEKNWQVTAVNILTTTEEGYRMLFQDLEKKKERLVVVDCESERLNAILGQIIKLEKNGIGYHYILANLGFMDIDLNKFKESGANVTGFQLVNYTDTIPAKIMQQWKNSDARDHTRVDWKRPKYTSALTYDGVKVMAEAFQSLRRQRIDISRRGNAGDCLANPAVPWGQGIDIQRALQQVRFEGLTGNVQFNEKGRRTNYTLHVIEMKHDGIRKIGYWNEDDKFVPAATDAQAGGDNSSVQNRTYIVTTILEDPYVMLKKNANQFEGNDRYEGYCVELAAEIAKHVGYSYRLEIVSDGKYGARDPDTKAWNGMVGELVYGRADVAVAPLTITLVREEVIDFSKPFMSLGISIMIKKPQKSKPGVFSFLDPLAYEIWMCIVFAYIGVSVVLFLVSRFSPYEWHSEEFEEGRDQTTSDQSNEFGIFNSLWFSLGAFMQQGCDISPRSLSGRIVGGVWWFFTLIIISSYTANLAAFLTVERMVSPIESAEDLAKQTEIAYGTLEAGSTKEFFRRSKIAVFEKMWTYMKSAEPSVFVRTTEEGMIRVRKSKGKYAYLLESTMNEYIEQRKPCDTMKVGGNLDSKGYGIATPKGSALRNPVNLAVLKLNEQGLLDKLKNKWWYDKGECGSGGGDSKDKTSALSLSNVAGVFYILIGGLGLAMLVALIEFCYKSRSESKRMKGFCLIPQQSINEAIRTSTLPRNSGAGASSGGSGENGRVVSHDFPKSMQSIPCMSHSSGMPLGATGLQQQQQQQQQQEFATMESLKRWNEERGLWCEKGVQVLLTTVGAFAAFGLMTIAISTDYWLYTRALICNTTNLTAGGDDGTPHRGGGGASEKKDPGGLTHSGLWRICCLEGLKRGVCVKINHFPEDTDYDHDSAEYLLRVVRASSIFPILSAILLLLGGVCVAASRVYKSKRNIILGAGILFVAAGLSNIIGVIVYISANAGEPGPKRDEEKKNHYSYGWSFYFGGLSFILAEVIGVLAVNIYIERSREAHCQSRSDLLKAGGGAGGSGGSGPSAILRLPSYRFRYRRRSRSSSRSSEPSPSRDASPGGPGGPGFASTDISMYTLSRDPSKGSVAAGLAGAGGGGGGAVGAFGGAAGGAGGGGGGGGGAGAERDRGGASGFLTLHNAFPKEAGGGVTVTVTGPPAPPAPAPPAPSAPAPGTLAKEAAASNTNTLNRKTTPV
For `O=C1Cc2cc(-n3c(-c4ccc(F)cc4)cc4ccc(Cl)nc43)ccc2N1` [Example 383, 5-[6-Chloro-2-(4-fluorophenyl)pyrrolo[2,3-b]pyridin-1-yl]indolin-2-one], the IC50 was 0.1 nM. As for `CC(C)c1nc2ccc(C3CC3)nc2n1-c1ccc2[nH]ncc2c1` [Example 79, 5-Cyclopropyl-3-(1H-indazol-5-yl)-2-isopropyl-imidazo[4,5-b]pyridine], the IC50 was 2 nM. As to `CC(F)(F)c1nc2ccc(C(F)(F)F)nc2n1-c1ccc2[nH]ncc2c1` [Example 116, 2-(1,1-Difluoroethyl)-3-(1H-indazol-5-yl)-5-(trifluoromethyl)imidazo[4,5-b]pyridine], the IC50 was 2 nM. As to `FC(F)(F)c1ccc2nc(-c3ccccc3)n(-c3ccc4[nH]ccc4c3)c2n1` [Example 13, 3-(1H-Indol-5-yl)-2-phenyl-5-(trifluoromethyl)imidazo[4,5-b]pyridine], the IC50 is 2 nM. Next, `CC(C)c1cc2ccc(C(F)(F)F)nc2n1-c1ccc2[nH]ncc2c1` [Example 335, 1-(1H-Indazol-5-yl)-2-isopropyl-6-(trifluoromethyl)pyrrolo[2,3-b]pyridine]: 0.0158 nM; `FC(F)(F)c1ccc2nc(C3CCOC3)n(-c3ccc4[nH]ncc4c3)c2n1` (racemic) [Example 100, (racemic)-3-(1H-Indazol-5-yl)-2-tetrahydrofuran-3-yl-5-(trifluoromethyl)imidazo[4,5-b]pyridine]: 251 nM; `Cc1ccc2nc(-c3ccccc3)n(-c3ccc4[nH]c(=O)sc4c3)c2n1` [Example 17, 6-(5-Methyl-2-phenyl-imidazo[4,5-b]pyridin-3-yl)-3H-1,3-benzothiazol-2-one]: 0.501 nM.

`Cc1ccc2ccn(-c3cc(C)c4c(c3)CC(=O)N4)c2n1` [Example 378, 7-Methyl-5-(6-methylpyrrolo[2,3-b]pyridin-1-yl)indolin-2-one]: the concentration for half-maximal inhibition (IC50) was 100 nM.

For the compound `CCC(CC)c1nc2ccc(C(F)(F)F)nc2n1-c1ccc2c(c1)CC(=O)N2` [Example 83, 5-[2-(1-Ethylpropyl)-5-(trifluoromethyl)imidazo[4,5-b]pyridin-3-yl]indolin-2-one], the IC50 is 63.1 nM.

Consider `FC(F)(F)c1ccc2nc(-c3ccccc3)n(-c3ccc4[nH]ncc4c3)c2n1` [Example 1, 3-(1H-Indazol-5-yl)-2-phenyl-5-(trifluoromethyl)-3H-imidazo[4,5-b]pyridine], for which the IC50 is 0.398 nM. Take `O=C1Cc2ccc(-n3c(C4CC4)nc4ccc(C(F)(F)F)nc43)cc2N1` [Example 297, 6-[2-Cyclopropyl-5-(trifluoromethyl)imidazo[4,5-b]pyridin-3-yl]indolin-2-one]: the IC50 was 1000 nM. The same measure for `FC(F)(F)c1ccc2ncn(-c3ccc4[nH]ncc4c3)c2n1` [Example 226, 3-(1H-Indazol-5-yl)-5-(trifluoromethyl)imidazo[4,5-b]pyridine]: 398 nM. The same measure for `Cc1cc2ccc(C(F)(F)F)nc2n1-c1cnc2c(c1)CC(=O)N2` [Example 402, 5-[2-Methyl-6-(trifluoromethyl)pyrrolo[2,3-b]pyridin-1-yl]-1,3-dihydropyrrolo[2,3-b]pyridin-2-one]: 10 nM; for `COC(=O)c1cc(-n2c(C(F)F)nc3ccc(C(F)(F)F)nc32)cc2cn[nH]c12` [Example 285, Methyl 5-[2-(difluoromethyl)-5-(trifluoromethyl)imidazo[4,5-b]pyridin-3-yl]-1H-indazole-7-carboxylate]: 251 nM.

For `FC(F)(F)c1ccc2nc(C(F)(F)F)n(-c3ccc4cn[nH]c4c3)c2n1` [Example 291, 3-(1H-Indazol-6-yl)-2,5-bis(trifluoromethyl)imidazo[4,5-b]pyridine], the IC50 was 63.1 nM.

As for `O=c1[nH]c2ccc(-n3c(-c4ccccc4)nc4ccc(N5CCOCC5)nc43)cc2s1` [Example 65, 6-(5-Morpholino-2-phenyl-imidazo[4,5-b]pyridin-3-yl)-3H-1,3-benzothiazol-2-one], the half-maximal inhibitory concentration (IC50) is 316 nM.
